Results from PubChem BioAssay (NCI).
“And” between values parts separate entries of the source, which are not always exact repeats. Equal values may be shown once.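 Test compounds were applied to cells in 96-well plates for 48 hours at 5 doses. GI50 marks 50% less growth. At the TGI there is no net growth.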

Legend:
Experiment in all cases: NCI-60 cell line screen, 48 h
IGROV1 ovarian = test system: IGROV1 ovarian
KM12 colon = test system: KM12 colon
RPMI-8226 leukemia = test system: RPMI-8226 leukemia
ACHN renal = test system: ACHN renal
UACC-62 melanoma = test system: UACC-62 melanoma
NCI-H23 lung = test system: NCI-H23 lung
UACC-257 melanoma = test system: UACC-257 melanoma
786-0 renal = test system: 786-0 renal
CAKI-1 renal = test system: CAKI-1 renal
PC-3 prostate = test system: PC-3 prostate

Row | Compound | TGI (IGROV1 ovarian) [µM] | TGI (KM12 colon) [µM] | TGI (RPMI-8226 leukemia) [µM] | TGI (ACHN renal) | TGI (UACC-62 melanoma) [µM] | TGI (NCI-H23 lung) [µM] | TGI (UACC-257 melanoma) [µM] | TGI (786-0 renal) [µM] | TGI (CAKI-1 renal) | GI50 (IGROV1 ovarian) [µM] | GI50 (KM12 colon) [µM] | GI50 (CAKI-1 renal) | GI50 (RPMI-8226 leukemia) [µM] | GI50 (ACHN renal) | GI50 (UACC-62 melanoma) [µM] | GI50 (NCI-H23 lung) [µM] | GI50 (UACC-257 melanoma) [µM] | GI50 (786-0 renal) [µM] | GI50 (PC-3 prostate) [µM] | TGI (PC-3 prostate) [µM]
1 | O=S(=O)(N/N=C/c1cccc(/C=N/NS(=O)(=O)c2ccccc2)c1)c1ccccc1 | > 100 | > 100 | > 100 | > 100 µM | > 100 | > 100 | > 100 | > 100 |  |  |  |  |  |  |  |  |  |  |  | 
2 | C=C(C)CCOC(c1ccccc1)(c1ccccc1)c1ccccc1 | > 100 | > 100 | > 100 | > 100 µM | > 100 | > 100 | 80.5 | > 100 | > 100 µM |  |  |  |  |  |  |  |  |  |  | 
3 | S=c1sc2c(n1-c1ccccc1)NC=NC2S (stereo unspecified) | > 100 | > 100 | > 100 | > 100 µM | > 100 | > 100 | > 100 | > 100 | > 100 µM |  |  |  |  |  |  |  |  |  |  | 
4 | O=c1ccc2ccccc2cc1[O-].O=c1ccc2ccccc2cc1[O-].[O]=[U+2]=[O] | 84.5 | 69.7 | > 100 | 33.1 µM | 39.6 | 90.7 | 44.3 | 40.8 | 51.9 µM | 23.4 | 7.15 | 9.44 µM | 17 | 14.2 µM | 16.9 | 27.2 | 6.19 | 15 |  | 
5 | CCOC(=O)C1=C(C)N(c2ccc(F)cc2F)[C@]2(C#N)C(O)=C(Cl)C(Cl)=C(O)[C@]12C#N | > 100 | > 100 | > 100 | > 100 µM |  | > 100 | > 100 | > 100 | > 100 µM | > 100 | > 100 | > 100 µM | 27.1 | > 100 µM |  | > 100 | > 100 | > 100 |  | 
6 | C/C(=N/Nc1ccc([N+](=O)[O-])cc1[N+](=O)[O-])C(CC(C(=O)NCc1ccccc1)/C(C)=N\Nc1ccc([N+](=O)[O-])cc1[N+](=O)[O-])C(=O)NCc1ccccc1 (stereo unspecified) | 31 | 15 | 44.8 | 17.4 µM | 28.4 | 28.7 | 18 | 13.1 | 20.4 µM |  |  |  |  |  |  |  |  |  |  | 
7 | Cc1ccc(-n2c3nc(=O)[nH]c(=O)c-3cc3cc([N+](=O)[O-])ccc32)cc1 |  | 16.1 | 21.3 | > 100 µM | 29.8 | 29.6 | 70.9 | 29.5 | 39.2 µM |  | 3.79 | 10.4 µM | 3.95 | 38.1 µM | 12.1 | 13.4 | 26.7 | 10.3 | 12.2 | 36.6
8 | CC(=O)NNc1nc(C)c(C(=O)/C=C/c2ccc(NC(C)=O)cc2)s1 | > 100 | > 100 | > 100 | > 100 µM | > 100 | > 100 | > 100 | > 100 | > 100 µM |  |  |  |  |  |  |  |  |  |  | 
9 | O=C(Nc1ccccc1-c1nn(C(=S)Nc2ccccc2)c(=S)n(C(=S)Nc2ccccc2)c1=O)C(F)(F)F | > 100 | 52 | 50.2 | > 95.6 µM | 44.4 | > 31.6 | 31.4 | > 100 | > 100 µM |  |  |  |  |  |  |  |  |  |  | 
10 | CC(C)(C)c1cc2ccc(C(N)=O)cc2c(=O)[nH]1 | > 100 | > 100 |  | > 100 µM | > 100 | > 100 | > 100 | > 100 | > 100 µM |  |  |  |  |  |  |  |  |  |  | 
11 | CC(=O)OCCOCNC(=S)N/N=C(\C)c1cnccn1 | > 100 | > 100 | > 100 | 86.3 µM | 36.5 | > 100 | > 100 | > 100 |  |  |  |  |  |  |  |  |  |  |  | 
12 | Cc1ccc(Oc2ccc(C)cc2N)cc1 | > 100 | > 100 | > 100 |  | > 100 | > 100 | > 100 | > 100 |  |  |  |  |  |  |  |  |  |  |  | 
13 | CC(C)(C)c1cc2c(O)c3cccc4c(=O)c5cccc6c5-c(c34)c2c(c1)c6=O | > 100 | > 100 |  | > 100 µM | > 100 | > 100 | > 100 | > 100 | > 100 µM |  |  |  |  |  |  |  |  |  |  | 
14 | COc1cc(-c2ccc3cc(OC)c(OC)c(OC)c3c2)cc(OC)c1OC | > 100 | > 100 |  | > 100 µM | > 100 | > 100 | > 100 | > 100 | > 100 µM | 40.4 | 5.93 | > 100 µM |  | 40.2 µM | 29.6 | > 100 | > 100 | 20.9 | 5.81 | > 100
15 | Cc1ccc(/C=C/C(=O)CCN(C)C)cc1 | 37.1 | 14 | > 100 | 32.9 µM | 28.2 | 79 | 31 | 32.6 | 26.8 µM |  |  |  |  |  |  |  |  |  |  | 
16 | COc1nc(NC2OC(COC(C)=O)C(OC(C)=O)C(OC(C)=O)C2OC(C)=O)c2c(OC(C)=O)cc(=O)oc2n1 (stereo unspecified) | > 100 | > 100 | > 100 | 29.6 µM | > 100 | > 100 | > 100 | > 100 | > 100 µM |  |  |  |  |  |  |  |  |  |  | 
17 | CCCCCCCCCCCCCCCC[N+](C)(C)Cc1ccccc1 | 0.533 | 2.42 | 0.239 | 7.96 µM and 6.53 µM | 2.98 |  |  | 2.93 | 35.6 µM and 21.7 µM | 0.209 | 1.13 | 9.52 µM and 3.74 µM | 0.0516 | 2.43 µM and 2.36 µM | 1.36 |  |  | 1.52 | 0.537 | 2
18 | N[C@@H]1CCCC[C@@H]1N.O=P([O-])([O-])CN(CCN(CP(=O)([O-])[O-])CP(=O)([O-])[O-])CP(=O)([O-])[O-].[Pt+2] | > 25 | > 25 | > 25 | > 25 µM | > 25 | > 25 | > 25 | > 25 | > 25 µM | > 25 | > 25 | > 25 µM | > 25 | > 25 µM | > 25 | > 25 | > 25 | > 25 |  | 
